Results on 17 molecules are retold here after ChEMBL document CHEMBL1145050, “Discovery of (3S)-amino-(4R)-ethylpiperidinyl quinolones as potent antibacterial agents with a broad spectrum of activity and activity against resistant pathogens” (J Med Chem, 2003).

Converted amounts (≈) assume the structure as drawn. Some results are limits rather than exact numbers.

Assay [1] addresses T1, DNA gyrase (Escherichia coli, UniProt P0AES4+P0AES6). The experiment in a line: Inhibition of Quinolone resistant gyrase Supercoiling Activity in Escherichia coli. The class given is protein-complex assay.
Assay [2] deals with T1, DNA gyrase. Description: Inhibition of Wild Type DNA gyrase Supercoiling Activity in Escherichia coli. Type of assay: protein-complex assay.
In another assay the test system is Pseudomonas aeruginosa. Description: Minimum inhibitory concentration against Pseudomonas aeruginosa, strain PS96. Type of assay: functional.
Assay [3] deals with Streptococcus pneumoniae. The experiment in a line: Minimum inhibitory concentration against Streptococcus pneumoniae - penicillin sensitive, strain STP64. The class given is functional.
The subject of assay [4] is Streptococcus pneumoniae. Description: Minimum inhibitory concentration against Streptococcus pneumoniae - penicillin resistant, strain STP51. The class given is functional.
Assay [5] deals with Staphylococcus aureus. The experiment in a line: Minimum inhibitory concentration against Staphylococcus aureus - methicillin resistant Ciprofloxacin resistant, strain MI339. The class given is functional.
The test system of assay [6] is Staphylococcus aureus. Description: Minimum inhibitory concentration against Staphylococcus aureus - methicillin resistant Ciprofloxacin sensitive strain MI300. Type of assay: functional.
The subject of the next assay is Escherichia coli. Description: Minimum inhibitory concentration against Escherichia coli, strain ES142. Type of assay: functional.
Assay [7] concerns Streptococcus pneumoniae. The experiment in a line: Minimum inhibitory concentration against Streptococcus pneumoniae (Penicillin resistant) strain STP51. The class given is functional.
Assay [8] has as its system Streptococcus pneumoniae. Description: Minimum inhibitory concentration against Streptococcus pneumoniae (Penicillin sensitive) strain STP64. The class given is functional.
Assay [9] concerns Staphylococcus aureus. The experiment in a line: Minimum inhibitory concentration against Staphylococcus aureus (Methicillin resistant Ciprofloxacin resistant) strain MI339. Type of assay: functional.
In assay [10] the test system is Staphylococcus aureus. Description: Minimum inhibitory concentration against Staphylococcus aureus (Methicillin resistant Ciprofloxacin sensitive) strain MI300. The class given is functional.

For `CC[C@@H]1CCN(c2c(F)cc3c(=O)c(C(=O)O)cn(C4CC4)c3c2OC)C[C@H]1N`, the IC50 (usually the concentration that gives 50% inhibition) against DNA gyrase [1] was 15.9 µM; on DNA gyrase [2], 7.93 µM. Moreover, the MIC (commonly the smallest concentration in the dilution series that meets the test's criterion for growth inhibition) in the assay on Pseudomonas aeruginosa stood at 1 µg/mL (≈ 2.48 µM); in the assay on Streptococcus pneumoniae [3], 0.031 µg/mL (≈ 0.0768 µM); in the assay on Streptococcus pneumoniae [4], 0.008 µg/mL (≈ 0.0198 µM); in the assay with Staphylococcus aureus [5], 0.125 µg/mL (≈ 0.31 µM); with Staphylococcus aureus [6], 0.008 µg/mL (≈ 0.0198 µM); in the assay with Escherichia coli it was 0.016 µg/mL (≈ 0.0397 µM).

For `COc1c(N2CCC[C@H](N)C2)c(F)cc2c(=O)c(C(=O)O)cn(C3CC3)c12`, the values for the IC50 on DNA gyrase [1] and against DNA gyrase [2] were 17 µM and 4.26 µM, respectively. The MIC against Pseudomonas aeruginosa was 1 µg/mL (≈ 2.66 µM); against Streptococcus pneumoniae [3], 0.125 µg/mL (≈ 0.333 µM); with Streptococcus pneumoniae [4] it was 0.063 µg/mL (≈ 0.168 µM); in the assay with Staphylococcus aureus [5] it was 0.5 µg/mL (≈ 1.33 µM); with Staphylococcus aureus [6], 0.031 µg/mL (≈ 0.0826 µM); in the assay with Escherichia coli, 0.031 µg/mL (≈ 0.0826 µM).

Regarding `CC[C@@H]1CCN(c2nc3c(cc2F)c(=O)c(C(=O)O)cn3C2CC2)C[C@H]1N`, the figures for the IC50 against DNA gyrase [1] and against DNA gyrase [2] were greater than 273 µM and 68.4 µM, respectively. Further, the MIC against Pseudomonas aeruginosa was 4 µg/mL (≈ 10.7 µM); in the assay with Streptococcus pneumoniae [3] it was 4 µg/mL (≈ 10.7 µM); in the assay with Streptococcus pneumoniae [4] it was 2 µg/mL (≈ 5.34 µM); with Staphylococcus aureus [5], greater than 4 µg/mL; in the assay on Staphylococcus aureus [6], 0.25 µg/mL (≈ 0.668 µM); against Escherichia coli, 0.03 µg/mL (≈ 0.0801 µM).

With `COc1c(N2CC[C@@H]([C@@H](C)N)C2)c(F)cc2c(=O)c(C(=O)O)cn(C3CC3)c12`, the MIC was determined as 0.25 µg/mL (≈ 0.642 µM) with Pseudomonas aeruginosa; 0.008 µg/mL (≈ 0.0205 µM) against Streptococcus pneumoniae [3]; 0.008 µg/mL (≈ 0.0205 µM) with Streptococcus pneumoniae [4]; 0.016 µg/mL (≈ 0.0411 µM) against Staphylococcus aureus [5]; 0.008 µg/mL (≈ 0.0205 µM) against Staphylococcus aureus [6]; 0.008 µg/mL (≈ 0.0205 µM) in the assay on Escherichia coli.

Turning to `CC[C@@H]1CCN(c2c(F)cc3c(=O)c(C(=O)O)cn(C4CC4)c3c2F)C[C@H]1N`, the IC50 against DNA gyrase [1] is 32.7 µM; against DNA gyrase [2] it was 0.511 µM. Besides, the MIC was determined as 0.75 µg/mL (≈ 1.92 µM) in the assay on Pseudomonas aeruginosa; 0.023 µg/mL (≈ 0.0588 µM) in the assay on Streptococcus pneumoniae [3]; 0.012 µg/mL (≈ 0.0307 µM) against Streptococcus pneumoniae [4]; 0.188 µg/mL (≈ 0.48 µM) in the assay with Staphylococcus aureus [5]; 0.006 µg/mL (≈ 0.0153 µM) with Staphylococcus aureus [6]; 0.006 µg/mL (≈ 0.0153 µM) against Escherichia coli.

As to `CC[C@H]1CCN(c2ccc3c(=O)c(C(=O)O)cn(C4CC4)c3c2OC)C[C@H]1N`, the MIC against Pseudomonas aeruginosa came to 4 µg/mL (≈ 10.4 µM); against Streptococcus pneumoniae [3], 1 µg/mL (≈ 2.59 µM); in the assay on Streptococcus pneumoniae [4], 0.5 µg/mL (≈ 1.3 µM); against Staphylococcus aureus [5] it was 4 µg/mL (≈ 10.4 µM); in the assay on Staphylococcus aureus [6], 0.25 µg/mL (≈ 0.649 µM); against Escherichia coli, 0.125 µg/mL (≈ 0.324 µM).

On to `CC[C@@H]1CCN(c2ccc3c(=O)c(C(=O)O)cn(C4CC4)c3c2OC)C[C@H]1N`, for which the IC50 is 33.2 µM against DNA gyrase [1] and 8.3 µM against DNA gyrase [2]. Further, the MIC against Pseudomonas aeruginosa was 1 µg/mL (≈ 2.59 µM); in the assay on Streptococcus pneumoniae [3], less than 0.003 µg/mL; in the assay with Streptococcus pneumoniae [4], 0.008 µg/mL (≈ 0.0208 µM); against Staphylococcus aureus [5], 0.25 µg/mL (≈ 0.649 µM); in the assay with Staphylococcus aureus [6] it was less than 0.004 µg/mL; in the assay on Escherichia coli, 0.006 µg/mL (≈ 0.0156 µM).

Regarding `N[C@H]1CCCN(c2nc3c(cc2F)c(=O)c(C(=O)O)cn3C2CC2)C1`, the IC50 at DNA gyrase [1] was greater than 296 µM; against DNA gyrase [2], 4.62 µM. Also, the minimum inhibitory concentration (MIC) was 1 µg/mL (≈ 2.89 µM) against Pseudomonas aeruginosa; 4 µg/mL (≈ 11.5 µM) with Streptococcus pneumoniae [3]; 4 µg/mL (≈ 11.5 µM) against Streptococcus pneumoniae [4]; greater than 4 µg/mL against Staphylococcus aureus [5]; 2 µg/mL (≈ 5.77 µM) in the assay with Staphylococcus aureus [6]; 0.125 µg/mL (≈ 0.361 µM) against Escherichia coli.

Take `COc1c(N2CCNC(C)C2)c(F)cc2c(=O)c(C(=O)O)cn(C3CC3)c12` (stereo not given) [GATIFLOXACIN]: the MIC was determined as 0.12 µg/mL (≈ 0.32 µM) against Pseudomonas aeruginosa; 0.12 µg/mL (≈ 0.32 µM) in the assay with Streptococcus pneumoniae [3]; 4 µg/mL (≈ 10.7 µM) with Staphylococcus aureus [5]; 0.06 µg/mL (≈ 0.16 µM) in the assay on Staphylococcus aureus [6]; 0.015 µg/mL (≈ 0.04 µM) in the assay on Escherichia coli.

Consider `N[C@H]1CCCN(c2c(F)cc3c(=O)c(C(=O)O)cn(C4CC4)c3c2F)C1`, for which the MIC is 0.5 µg/mL (≈ 1.38 µM) in the assay on Pseudomonas aeruginosa; 0.13 µg/mL (≈ 0.358 µM) with Streptococcus pneumoniae [7]; 0.06 µg/mL (≈ 0.165 µM) against Streptococcus pneumoniae [8]; 4 µg/mL (≈ 11 µM) against Staphylococcus aureus [9]; 0.13 µg/mL (≈ 0.358 µM) against Staphylococcus aureus [10]; 0.03 µg/mL (≈ 0.0826 µM) with Escherichia coli.

`N[C@H]1CCCN(c2ccc3c(=O)c(C(=O)O)cn(C4CC4)c3c2Cl)C1`: the IC50 was 35.4 µM against DNA gyrase [1] and 8.84 µM against DNA gyrase [2]. In addition, the MIC in the assay with Pseudomonas aeruginosa is 0.5 µg/mL (≈ 1.38 µM); against Streptococcus pneumoniae [3] it was 0.12 µg/mL (≈ 0.332 µM); against Streptococcus pneumoniae [4] it was less than 0.008 µg/mL; in the assay with Staphylococcus aureus [5], 1 µg/mL (≈ 2.76 µM); with Staphylococcus aureus [6], 0.016 µg/mL (≈ 0.0442 µM); in the assay on Escherichia coli it was 0.03 µg/mL (≈ 0.0829 µM).

For `O=C(O)c1cn(C2CC2)c2cc(N3CCNCC3)c(F)cc2c1=O` [CIPROFLOXACIN], the MIC against Pseudomonas aeruginosa was 0.12 µg/mL (≈ 0.362 µM); with Streptococcus pneumoniae [3], 0.25 µg/mL (≈ 0.754 µM); with Staphylococcus aureus [6] it was 0.25 µg/mL (≈ 0.754 µM).

As to `NC1CCN(c2c(F)cc3c(=O)c(C(=O)O)cn(C4CC4)c3c2Cl)C1` (stereo not given) [CLINAFLOXACIN], the IC50 was 2.73 µM at DNA gyrase [1] and 0.547 µM against DNA gyrase [2]. The MIC in the assay with Pseudomonas aeruginosa stood at 0.06 µg/mL (≈ 0.164 µM); in the assay on Streptococcus pneumoniae [3] it was 0.03 µg/mL (≈ 0.082 µM); with Streptococcus pneumoniae [4], 0.15 µg/mL (≈ 0.41 µM); in the assay with Staphylococcus aureus [5], 0.5 µg/mL (≈ 1.37 µM); against Staphylococcus aureus [6], 0.03 µg/mL (≈ 0.082 µM); against Escherichia coli, 0.015 µg/mL (≈ 0.041 µM).

Turning to `O=C(O)c1cn(C2CC2)c2c(Cl)c(N3CCNCC3)ccc2c1=O`, the minimum inhibitory concentration (MIC) is 0.5 µg/mL (≈ 1.44 µM) in the assay with Pseudomonas aeruginosa, 4 µg/mL (≈ 11.5 µM) in the assay on Streptococcus pneumoniae [3], 8 µg/mL (≈ 23 µM) against Staphylococcus aureus [5] and 0.25 µg/mL (≈ 0.719 µM) in the assay on Staphylococcus aureus [6].

As for `COc1c(N2CCC[C@H](N)C2)ccc2c(=O)c(C(=O)O)cn(C3CC3)c12`, the IC50 against DNA gyrase [1] was 35.8 µM; against DNA gyrase [2] it was 17.9 µM. Moreover, the MIC was 0.5 µg/mL (≈ 1.4 µM) against Pseudomonas aeruginosa; 0.03 µg/mL (≈ 0.0839 µM) with Streptococcus pneumoniae [3]; less than 0.008 µg/mL with Streptococcus pneumoniae [4]; 1 µg/mL (≈ 2.8 µM) in the assay with Staphylococcus aureus [5]; less than 0.06 µg/mL in the assay on Staphylococcus aureus [6]; 0.03 µg/mL (≈ 0.0839 µM) in the assay with Escherichia coli.

As to `CC[C@@H]1CCN(c2cc3c(cc2F)c(=O)c(C(=O)O)cn3C2CC2)C[C@H]1N`, the MIC against Pseudomonas aeruginosa was 1.5 µg/mL (≈ 4.02 µM); in the assay with Streptococcus pneumoniae [3], 0.75 µg/mL (≈ 2.01 µM); against Streptococcus pneumoniae [4], 0.375 µg/mL (≈ 1 µM); with Staphylococcus aureus [5], greater than 3 µg/mL; against Staphylococcus aureus [6], 0.094 µg/mL (≈ 0.252 µM); in the assay with Escherichia coli, 0.012 µg/mL (≈ 0.0321 µM).

Consider `CC[C@@H]1CCN(c2ccc3c(=O)c(C(=O)O)cn(C4CC4)c3c2Cl)C[C@H]1N`, for which the values for the IC50 against DNA gyrase [1] and on DNA gyrase [2] were 8.21 µM and 4.1 µM, respectively. Moreover, the MIC with Pseudomonas aeruginosa was 0.125 µg/mL (≈ 0.321 µM); in the assay on Streptococcus pneumoniae [3], less than 0.004 µg/mL; in the assay on Staphylococcus aureus [5] it was 0.31 µg/mL (≈ 0.795 µM); in the assay on Staphylococcus aureus [6], less than 0.004 µg/mL; in the assay on Escherichia coli, less than 0.004 µg/mL.
